# Source: patent US20220323406A1, “METHODS AND COMPOSITIONS FOR DIFFERENTIATING STEM CELLS” (Massachusetts Institute of Technology, priority 2019, published 2022)
# Counter-ions that a name gives are not always drawn.
# Legend:
# [1] = test system: ENR+CD organoids (ISC to Paneth cell differentiation); test: Primary screen: basal (non-stimulated) lysozyme secretion LYZ.NS, 2.5-D 384-well ENR+CD organoid differentiation; format: cell-based, mouse
# Text: (§1) High-throughput screening.
# [2] = test system: ENR+CD organoids (ISC to Paneth cell differentiation); test: Primary screen: CCh-stimulated lysozyme secretion LYZ.S, 2.5-D 384-well ENR+CD organoid differentiation; format: cell-based, mouse; settings: primary screen
# Text: as §1
# ENR+CD organoids = test: Primary screen: ATP (CellTiter-Glo 3D, CTG) cell number/viability, 2.5-D 384-well ENR+CD organoids;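 note: compounds given at plating and again on day 3 over a 6-day differentiation from ENR+CV stem-cell-enriched precursors, ATP measured on day 6, plate median as control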
# [3] = primary screen, dose 0.08 uM, standard z score
# [4] = primary screen, dose 0.40 uM, standard z score
# [5] = primary screen, dose 2.00 uM, standard z score
# [6] = primary screen, dose 10.00 uM, standard z score
# [7] = primary screen; dose 0.08 uM; FC vs plate median
# [8] = primary screen; dose 0.40 uM; FC vs plate median
# [9] = primary screen; dose 2.00 uM; FC vs plate median
# [10] = primary screen; dose 10.00 uM; FC vs plate median
# [11] = dose 0.08 uM, FC vs plate median
# [12] = dose 0.40 uM, FC vs plate median
# [13] = dose 2.00 uM, FC vs plate median
# [14] = dose 10.00 uM, FC vs plate median
# [15] = primary screen, standard z score, dose 0.08 uM
# [16] = primary screen, standard z score, dose 0.40 uM
# [17] = primary screen, standard z score, dose 2.00 uM
# [18] = primary screen, standard z score, dose 10.00 uM
# [19] = primary screen, dose 0.08 uM, FC relative to plate median
# [20] = primary screen, dose 0.40 uM, FC relative to plate median
# [21] = primary screen, dose 2.00 uM, FC relative to plate median
# [22] = primary screen, dose 10.00 uM, FC relative to plate median
Structure (SMILES),"Z.LYZ.NS [1, 3]","Z.LYZ.NS [1, 4]","Z.LYZ.NS [1, 5]","Z.LYZ.NS [1, 6]","Dose.FC.LYZ.NS [1, 7]","Dose.FC.LYZ.NS [1, 8]","Dose.FC.LYZ.NS [1, 9]","Dose.FC.LYZ.NS [1, 10]","Dose.FC.LYZ.NS ([1]; primary screen, dose 0.08 uM)","Dose.FC.LYZ.NS ([1]; primary screen, dose 0.40 uM)","Dose.FC.LYZ.NS ([1]; primary screen, dose 2.00 uM)","Dose.FC.LYZ.NS ([1]; primary screen, dose 10.00 uM)",Dose.FC.LYZ.S ([2]; dose 0.08 uM),Dose.FC.LYZ.S ([2]; dose 0.40 uM),Dose.FC.LYZ.S ([2]; dose 2.00 uM),Dose.FC.LYZ.S ([2]; dose 10.00 uM),"Dose.FC.CTG (ENR+CD organoids; primary screen, dose 0.08 uM)","Dose.FC.CTG (ENR+CD organoids; primary screen, dose 0.40 uM)","Dose.FC.CTG (ENR+CD organoids; primary screen, dose 2.00 uM)","Dose.FC.CTG (ENR+CD organoids; primary screen, dose 10.00 uM)",also measured
C#Cc1cccc(Nc2ncnc3cc(OCCOC)c(OCCO)cc23)c1 [OSI-420],1.002,−1.948,−2.498,−2.833,0.115 log2 fold change,−0.224 log2 fold change,−0.287 log2 fold change,−0.325 log2 fold change,–,–,–,–,–,–,–,–,–,–,–,–,"Dose.FC.LYZ.S [2, 11]: 0.059 log2 fold change; Dose.FC.LYZ.S [2, 12]: −0.221 log2 fold change; Dose.FC.LYZ.S [2, 13]: −0.381 log2 fold change; Dose.FC.LYZ.S [2, 14]: −0.374 log2 fold change; Z.CTG (ENR+CD organoids; [3]): 0.254; Z.CTG (ENR+CD organoids; [4]): −0.311; Z.CTG (ENR+CD organoids; [5]): −3.016; Z.CTG (ENR+CD organoids; [6]): −2.627; Dose.FC.CTG (ENR+CD organoids; [7]): 0.106 log2 fold change; Dose.FC.CTG (ENR+CD organoids; [8]): −0.130 log2 fold change; Dose.FC.CTG (ENR+CD organoids; [9]): −1.263 log2 fold change; Dose.FC.CTG (ENR+CD organoids; [10]): −1.100 log2 fold change"
O=C(NOCC1CC1)c1ccc(F)c(F)c1Nc1ccc(I)cc1Cl [PD184352 (CI-1040)],−0.162,−0.458,−1.176,−1.011,−0.019 log2 fold change,−0.053 log2 fold change,−0.135 log2 fold change,−0.116 log2 fold change,–,–,–,–,–,–,–,–,–,–,–,–,"Dose.FC.LYZ.S [2, 11]: −0.019 log2 fold change; Dose.FC.LYZ.S [2, 12]: −0.047 log2 fold change; Dose.FC.LYZ.S [2, 13]: −0.178 log2 fold change; Dose.FC.LYZ.S [2, 14]: −0.239 log2 fold change; Z.CTG (ENR+CD organoids; [3]): 0.874; Z.CTG (ENR+CD organoids; [4]): 0.624; Z.CTG (ENR+CD organoids; [5]): −0.506; Z.CTG (ENR+CD organoids; [6]): −1.901; Dose.FC.CTG (ENR+CD organoids; [7]): 0.366 log2 fold change; Dose.FC.CTG (ENR+CD organoids; [8]): 0.261 log2 fold change; Dose.FC.CTG (ENR+CD organoids; [9]): −0.212 log2 fold change; Dose.FC.CTG (ENR+CD organoids; [10]): −0.796 log2 fold change"
CO[C@H]1C[C@@H]2CC[C@@H](C)[C@@](O)(O2)C(=O)C(=O)N2CCCC[C@H]2C(=O)O[C@H]([C@H](C)C[C@@H]2CC[C@@H](OCCO)[C@H](OC)C2)CC(=O)[C@H](C)/C=C(\C)[C@@H](O)[C@@H](OC)C(=O)[C@H](C)C[C@H](C)/C=C/C=C/C=C/1C [Everolimus (RAD001)],–,–,–,–,–,–,–,–,0.068 log2 fold change,0.110 log2 fold change,−0.003 log2 fold change,−0.024 log2 fold change,−0.012 log2 fold change,−0.007 log2 fold change,−0.039 log2 fold change,−0.096 log2 fold change,0.392 log2 fold change,0.127 log2 fold change,0.132 log2 fold change,−0.111 log2 fold change,"Z.LYZ.NS [1, 15]: 0.590; Z.LYZ.NS [1, 16]: 0.956; Z.LYZ.NS [1, 17]: −0.030; Z.LYZ.NS [1, 18]: −0.210; Z.CTG (ENR+CD organoids; [15]): 0.936; Z.CTG (ENR+CD organoids; [16]): 0.304; Z.CTG (ENR+CD organoids; [17]): 0.314; Z.CTG (ENR+CD organoids; [18]): −0.266"
NCC(=O)Nc1ccc(-n2nc(C(F)(F)F)cc2-c2ccc3c(ccc4ccccc43)c2)cc1 [OSU-03012 (AR-12)],0.755,0.285,0.460,−0.423,0.087 log2 fold change,0.033 log2 fold change,0.053 log2 fold change,−0.049 log2 fold change,–,–,–,–,–,–,–,–,–,–,–,–,"Dose.FC.LYZ.S [2, 11]: 0.126 log2 fold change; Dose.FC.LYZ.S [2, 12]: 0.113 log2 fold change; Dose.FC.LYZ.S [2, 13]: 0.060 log2 fold change; Dose.FC.LYZ.S [2, 14]: −0.128 log2 fold change; Z.CTG (ENR+CD organoids; [3]): 0.491; Z.CTG (ENR+CD organoids; [4]): 0.272; Z.CTG (ENR+CD organoids; [5]): 0.556; Z.CTG (ENR+CD organoids; [6]): 0.185; Dose.FC.CTG (ENR+CD organoids; [7]): 0.205 log2 fold change; Dose.FC.CTG (ENR+CD organoids; [8]): 0.114 log2 fold change; Dose.FC.CTG (ENR+CD organoids; [9]): 0.233 log2 fold change; Dose.FC.CTG (ENR+CD organoids; [10]): 0.078 log2 fold change"
CCC(=O)NCC[C@@H]1CCc2ccc3c(c21)CCO3 [Ramelteon],0.537,0.712,−0.109,0.062,–,–,–,–,–,–,–,–,–,–,–,–,–,–,–,–,"Dose.FC.LYZ.NS [1, 19]: 0.062 log2 fold change; Dose.FC.LYZ.NS [1, 20]: 0.082 log2 fold change; Dose.FC.LYZ.NS [1, 21]: −0.013 log2 fold change; Dose.FC.LYZ.NS [1, 22]: 0.007 log2 fold change; Dose.FC.LYZ.S ([2]; dose 0.08 uM, FC relative to plate median): 0.030 log2 fold change; Dose.FC.LYZ.S ([2]; dose 0.40 uM, FC relative to plate median): 0.103 log2 fold change; Dose.FC.LYZ.S ([2]; dose 2.00 uM, FC relative to plate median): −0.009 log2 fold change; Dose.FC.LYZ.S ([2]; dose 10.00 uM, FC relative to plate median): 0.001 log2 fold change; Dose.FC.CTG (ENR+CD organoids; [19]): −0.028 log2 fold change; Dose.FC.CTG (ENR+CD organoids; [20]): 0.155 log2 fold change; Dose.FC.CTG (ENR+CD organoids; [21]): −0.315 log2 fold change; Dose.FC.CTG (ENR+CD organoids; [22]): 0.150 log2 fold change"
O=C(c1ccc(F)cc1)N1CCC[C@H](c2nc(-c3ccc(F)cc3)no2)C1 [ADX-47273],–,–,–,–,–,–,–,–,0.269 log2 fold change,0.053 log2 fold change,−0.033 log2 fold change,−0.036 log2 fold change,0.147 log2 fold change,0.147 log2 fold change,−0.039 log2 fold change,−0.070 log2 fold change,0.115 log2 fold change,−0.034 log2 fold change,−0.210 log2 fold change,−0.039 log2 fold change,"Z.LYZ.NS (standard z score) ([1]; primary screen, dose 0.08 uM): 2.346; Z.LYZ.NS (standard z score) ([1]; primary screen, dose 0.40 uM): 0.457; Z.LYZ.NS (standard z score) ([1]; primary screen, dose 2.00 uM): −0.286; Z.LYZ.NS (standard z score) ([1]; primary screen, dose 10.00 uM): −0.311; Z.CTG (standard z score) (ENR+CD organoids; primary screen, dose 0.08 uM): 0.274; Z.CTG (standard z score) (ENR+CD organoids; primary screen, dose 0.40 uM): −0.082; Z.CTG (standard z score) (ENR+CD organoids; primary screen, dose 2.00 uM): −0.501; Z.CTG (standard z score) (ENR+CD organoids; primary screen, dose 10.00 uM): −0.094"
CCCCN1CCCCC1C(=O)Nc1c(C)cccc1C (centres unmarked) [Bupivacaine HCl],–,–,–,–,–,–,–,–,0.002 log2 fold change,−0.100 log2 fold change,−0.137 log2 fold change,−0.195 log2 fold change,0.082 log2 fold change,−0.169 log2 fold change,−0.210 log2 fold change,−0.295 log2 fold change,−0.003 log2 fold change,−0.217 log2 fold change,−0.300 log2 fold change,−0.364 log2 fold change,"Z.LYZ.NS (standard z score) ([1]; primary screen, dose 0.08 uM): 0.016; Z.LYZ.NS [1, 16]: −0.871; Z.LYZ.NS [1, 17]: −1.196; Z.LYZ.NS [1, 18]: −1.700"
CN(C)C(=O)c1ccc(S(=O)(=O)c2ccc(NC(=O)[C@@](C)(O)C(F)(F)F)c(Cl)c2)cc1 [AZD7545],–,–,–,–,–,–,–,–,0.087 log2 fold change,−0.028 log2 fold change,−0.018 log2 fold change,−0.051 log2 fold change,0.111 log2 fold change,−0.017 log2 fold change,−0.148 log2 fold change,−0.104 log2 fold change,−0.334 log2 fold change,−0.158 log2 fold change,−0.255 log2 fold change,−0.350 log2 fold change,"Z.LYZ.NS (standard z score) ([1]; primary screen, dose 0.08 uM): 0.758; Z.LYZ.NS (standard z score) ([1]; primary screen, dose 0.40 uM): −0.245; Z.LYZ.NS (standard z score) ([1]; primary screen, dose 2.00 uM): −0.155; Z.LYZ.NS (standard z score) ([1]; primary screen, dose 10.00 uM): −0.441; Z.CTG (standard z score) (ENR+CD organoids; primary screen, dose 0.08 uM): −0.798; Z.CTG (standard z score) (ENR+CD organoids; primary screen, dose 0.40 uM): −0.378; Z.CTG (standard z score) (ENR+CD organoids; primary screen, dose 2.00 uM): −0.608; Z.CTG (standard z score) (ENR+CD organoids; primary screen, dose 10.00 uM): −0.836"
